Measured values taken from PubChem BioAssay (NCI).
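Tested at 5 concentrations; 48 h exposure; 96-well plates; endpoints linearly interpolated, else capped at highest concentration. GI50 = concentration required for 50% inhibition of growth. TGI: concentration producing complete growth inhibition.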

What was measured:
Assay in all cases: NCI anticancer screen, dose series, 48 h
K-562 leukemia = tested on: K-562 leukemia
HCC-2998 colon = tested on: HCC-2998 colon
ACHN renal = tested on: ACHN renal
SK-MEL-5 melanoma = tested on: SK-MEL-5 melanoma
LOX IMVI melanoma = tested on: LOX IMVI melanoma
MDA-MB-231 breast = tested on: MDA-MB-231 breast
U251 CNS = tested on: U251 CNS
786-0 renal = tested on: 786-0 renal
SK-MEL-28 melanoma = tested on: SK-MEL-28 melanoma
NCI-H23 lung = tested on: NCI-H23 lung

SMILES	GI50 (K-562 leukemia) [µM]	TGI (K-562 leukemia) [µM]	GI50 (HCC-2998 colon) [µM]	TGI (HCC-2998 colon) [µM]	GI50 (ACHN renal) [µM]	TGI (ACHN renal) [µM]	GI50 (SK-MEL-5 melanoma) [µM]	TGI (SK-MEL-5 melanoma) [µM]	GI50 (LOX IMVI melanoma) [µM]	TGI (LOX IMVI melanoma) [µM]	GI50 (MDA-MB-231 breast) [µM]	TGI (MDA-MB-231 breast) [µM]	GI50 (U251 CNS) [µM]	TGI (U251 CNS) [µM]	GI50 (786-0 renal) [µM]	TGI (786-0 renal) [µM]	GI50 (SK-MEL-28 melanoma) [µM]	TGI (SK-MEL-28 melanoma) [µM]	GI50 (NCI-H23 lung) [µM]	TGI (NCI-H23 lung) [µM]
CC1SC(c2ccccc2Cl)N(NC(=O)C(O)c2ccccc2)C1=O (stereo not given)	58.5	> 100	> 100	> 100	55.8	> 100	63.9	> 100	> 100	> 100	33.8	> 100	66.9	> 100	> 100	> 100	> 100	> 100	–	–
COC[C@H](NC(=O)c1cnc(C)s1)C(=O)N[C@@H](COC)C(=O)N[C@@H](Cc1ccccc1)C(=O)[C@@]1(C)CO1	37.8	> 100	18.2	37.6	34.8	> 100	19.9	47.1	17.8	38.4	16.2	39	47.8	> 100	50.1	> 100	27.5	> 95.1	36.6	> 100
CCOC(=O)C(=Cc1ccc(C#N)cc1)C(=O)OCC	3.44	> 100	1.81	3.43	1.78	3.46	1.92	3.67	1.8	3.87	2.69	6.95	2.15	4.89	1.84	3.88	2.35	6.56	2.15	5.53
NC(=S)N/N=C/c1ccc(OC(=O)COc2cc(Cl)c(Cl)cc2Cl)cn1	5.56	> 100	5.84	> 100	3.03	> 100	3.42	59.6	3.09	26.6	4.53	> 100	3.52	> 100	3.54	> 100	13.1	> 100	3.26	> 100
CC1(C)N=C(N)N=C(N)N1c1ccc(CNC(=O)Nc2ccc(S(=O)(=O)F)c(Cl)c2)c(Cl)c1	0.257	> 100	1.11	> 100	5.28	> 100	0.88	> 74.7	0.396	> 100	15.6	> 100	0.51	> 100	0.872	> 100	4.35	> 100	0.585	> 100
O=[N+]([O-])c1ccc(-c2csc(N=Nc3c(O)[nH]c4ccccc34)n2)cc1	–	–	–	50.5	–	> 100	–	> 100	–	> 100	–	> 100	–	> 100	–	> 100	–	> 100	–	> 100
CC1=C(C#N)C23C(=O)N(c4ccccc4)C(=O)C2=C(O)C=CC3(O)N1Cc1ccc(Cl)cc1Cl (stereo not given)	3.76	9.26	1.81	3.82	12.6	25.2	5.19	17	1.59	2.94	3.93	16.1	2.86	11.3	3.99	14.5	1.53	3.4	3.33	15.9
Cc1ccc(S(=O)(=O)ON2C(=O)c3cccc4cc([N+](=O)[O-])cc(c34)C2=O)cc1	–	–	–	58.9	–	> 100	–	> 100	–	> 100	–	> 100	–	> 100	–	> 100	–	> 100	–	> 100
Fc1cccc(COc2ccc(Nc3ncnc4onc(-c5ccccc5)c34)cc2)c1	0.101	> 100	0.287	16.8	3.38	> 100	0.299	30.4	0.125	> 100	0.402	14.8	0.215	> 86.8	0.691	21.2	16.4	> 100	0.583	> 100
O=C(c1c(F)c(F)c(F)c(F)c1F)c1c(F)c(F)c(F)c(F)c1F	–	> 100	–	3.47	–	3.09	–	8.24	–	2.19	–	3.46	–	2.41	–	1.64	–	7.92	–	7.87
O=C1Nc2c(Cl)cc(Cl)cc2/C1=N/N=C/c1ccco1	–	> 100	–	> 100	–	> 100	–	> 100	–	35	–	58	–	> 100	–	> 100	–	> 100	–	75.9
Cc1ccc(CNc2ccc3nc(CCC4CCCCC4)[nH]c3c2)cc1	2.1	5.47	2.19	4.35	3.09	9.65	1.69	3.09	1.74	3.19	1.68	3.33	1.79	3.62	2.12	4.93	–	–	2.1	4.88
COC(=O)/C=C1/SC(=Nc2cccc(Cl)c2)N(CCc2c[nH]c3ccc(O)cc23)C1=O	–	–	1.88	3.48	1.73	3.33	1.99	4.19	1.52	2.98	1.74	3.59	1.76	3.51	1.67	3.4	1.69	3.33	1.86	4.34
CN1C(=O)CCC(N2C(=O)c3cccc(NCCOCCOCCNC(=O)c4cc5c(o4)C(=O)c4ccccc4C5=O)c3C2=O)C1=O (stereo not given)	2.13	6.52	1.99	3.96	2.04	5.17	0.242	0.652	1.11	3	2.64	8.77	2.4	6.1	2.27	5.64	2.04	4.27	–	–
